{"source": "patent US20250262225A1", "about": "“COMPOSITION FOR TREATMENT OF COVID-19 COMPRISING TAURODEOXYCHOLIC ACID OR PHARMACEUTICALLY ACCEPTABLE SALT THEREOF AS ACTIVE INGREDIENT” (SHAPERON INC., priority 2021, published 2025)", "key": {"mBMDM cells": {"system": "mBMDM cells", "experiment": "intracellular cAMP concentration in LPS-stimulated mBMDM (chemiluminescent analysis)", "type": "cell-based, mouse", "conditions": "100 ng/ml LPS and 400 ng/ml TDCA simultaneously for 30 minutes; FIG. 1A", "method": "Specifically, the bone marrow extracted from C57BL/6N mouse was differentiated in RPMI medium supplemented with 10% FBS, 100 U/ml penicillin streptomycin, 55 μM 2-mercaptoethanol, and 10 ng/ml recombinant mouse granulocyte-macrophage colony-stimulating factor (GM-CSF) for 7 days."}, "[1]": {"experiment": "phase 1 clinical trial: safety/tolerability and pharmacokinetics in healthy adult male volunteers", "type": "in vivo, human", "conditions": "healthy males", "protocol": "Forty healthy adult male volunteers in Korea were selected as subjects for the clinical trial. The clinical trial was conducted at Seoul National University Hospital (Seoul, Korea) and was targeted at people who met all of the selection criteria in [Table 1].\nA randomized, double-blind, standard treatment-based placebo-controlled trial group was assigned to evaluate drug safety/tolerability and pharmacokinetics (PK) in clinical trial subjects. As a therapeutic agent, NuSepin, an injectable clinical agent containing TDCA, was used.\nA screening test was performed on healthy male volunteers within 4 weeks (−28 d to −4 d) from the first administration date (1 d) of the study drug to select test subjects determined to be suitable for this clinical trial. […] In the morning on the study drug administration date (1 d), designated tests such as blood collection for pharmacokinetic analysis and safety evaluation were performed, and then the study drug or placebo was administered intravenously on an empty stomach. The test subjects were subjected to the clinical trial according to the set schedule and discharged from the hospital 1 day (2 d) after administration, and the subjects who completed all clinical trial schedules underwent a post-study visit between 4 d and 6 d.\n• Monitoring of adverse events such as subjective and objective symptoms • Physical examination • Vital signs • Electrocardiogram (12-Lead ECG) test • Clinical laboratory test • Local toxicity assessment • Continuous ECG and SpO2 monitoring\nAdverse events were described by dose group and treatment group based on severity and causal relationship with the stsudy drug, and the frequency and percentage of the number of test subjects with adverse events were compared and evaluated. Vital signs, electrocardiogram test, clinical laboratory tests, physical examination, monitoring of adverse events such as subjective and objective symptoms, continuous ECG and SpO2 monitoring, and the like were comprehensively reviewed, and statistical analysis was performed if necessary only on items determined to be clinically significant.\nPharmacokinetic variables were obtained by a non-compartmental analysis method for subjects who completed this clinical trial using appropriate and validated pharmacokinetic software (for example, Phoenix WinNonlin® (Version 8.0 or higher, Pharsight, CA, USA)), and descriptive statistics (mean, standard deviation, and the like) were obtained for each dose group and treatment group."}, "mBMDM [2]": {"system": "mBMDM", "experiment": "IL-1β ELISA in mBMDM activated with LPS+ATP or LPS+BzATP", "type": "cell-based, mouse", "conditions": "then 0, 25, 100 or 400 ng/ml TDCA, FIG. 2B", "protocol": "(§1) The bone marrow-derived macrophages of Example <1-1> were cultured in culture dishes at various densities and then collected (4×10^4, 5×10^5, 1×10^6 cells/well, 96-well, 24-well, and 12-well culture dishes, respectively). […] After the time expired, the supernatant was collected, stored at −80° C., and then subjected to ELISA analysis."}, "mBMDM [3]": {"system": "mBMDM", "experiment": "TNF-α ELISA in LPS-primed mBMDM", "type": "cell-based, mouse", "conditions": "10 ng/ml LPS 3 hours, then 0, 25, 100, 400 ng/ml TDCA 1 hour, FIG. 1C", "protocol": "After the time expired, the supernatant was collected, stored at −80° C., and then subjected to ELISA analysis."}, "mBMDM [4]": {"system": "mBMDM", "experiment": "qRT-PCR of inflammation-related factor transcription in LPS+BzATP-treated mBMDM", "type": "cell-based, mouse", "conditions": "10 ng/ml LPS, 300 μM BzATP and 400 ng/ml TDCA simultaneously 1 hour, FIG. 1B", "protocol": "as §1, with “cells were” for “supernatant was”, “qRT-PCR” for “ELISA”"}, "[5]": {"experiment": "half-life estimate from non-clinical data", "conditions": "calculated based on estimates made from non-clinical data"}, "[6]": {"system": "sepsis induced by intravenous LPS in dogs", "experiment": "canine LPS-induced sepsis (systemic inflammation) model", "type": "in vivo, dog", "conditions": "LPS i.v.", "protocol": "After LPS administration, blood pressure was monitored every 1 hour, blood was collected at 0, 1, 3, 6, 12, 18, 24, 36, and 48 h, and the animals were sacrificed at 48 h to complete the experiment.\nThe survival rate was examined by checking the number of beagle dogs that died for 48 hours in the two treatment groups in which sepsis was induced in Example <2-1>.\nBlood pressure was measured hourly for 48 hours in the two treatment groups in which sepsis was induced in Example <2-1>.\nBlood urea nitrogen (BUN) and creatinine tests were performed as renal function tests. Specifically, blood was collected hourly for 48 hours from the two treatment groups in which sepsis was induced in Example <2-1>, serum was separated, and then BUN and […] concentrations in the serum were measured.\nBlood was collected hourly for 48 hours from the two treatment groups in which sepsis was induced in Example <2-1>, serum was separated, and then the inflammatory cytokine IL-1β in the serum was measured."}, "[7]": {"conditions": "single i.v. NuSepin 0.1-1.6 mg/kg or placebo"}}}
{"substance": "sodium taurodeoxycholate [TDCA]", "values": [{"measurement": "cAMP concentration in cells", "setting": "mBMDM cells", "value": "recovered"}, {"measurement": "PK properties", "setting": "[1]; single i.v. 0.1, 0.2, 0.4, 0.8, 1.6 mg/kg", "value": "concentration dependent manner"}, {"measurement": "drug-related side effects", "setting": "[1]; [7]", "value": "one has mild IMD (immunomodulatory drugs)-related side effects"}, {"measurement": "severity and outcome of side effects", "setting": "[1]; [7]", "value": "all of the side effects are not severe and recover without treatment"}, {"measurement": "clinical trial subjects with side effects", "setting": "[1]; single i.v. NuSepin 0.1-1.6 mg/kg or placebo, 40 subjects", "value": "three of the clinical trial subjects have side effects"}, {"measurement": "concentration of IL-1β produced by inflammation activation", "setting": "mBMDM [2]", "value": "decreases in proportion to the amount of TDCA used for treatment"}, {"measurement": "TNF-α produced by LPS", "setting": "mBMDM [3]", "value": "decreased"}, {"measurement": "intracellular transcriptional expression of ASC", "setting": "mBMDM [4]", "value": "decreased"}, {"measurement": "intracellular transcriptional expression of Caspase1", "setting": "mBMDM [4]", "value": "decreased"}, {"measurement": "intracellular transcriptional expression of IL-1β", "setting": "mBMDM [4]", "value": "decreased"}, {"measurement": "intracellular transcriptional expression of NLRP3", "setting": "mBMDM [4]", "value": "decreased"}, {"measurement": "half-life of the drug", "setting": "[5]", "value": "approximately 1 hour"}, {"measurement": "survival rate", "setting": "[6]; TDCA i.v. 2, 1, 1 mg/kg at 12-hour intervals, 48 hours, half of placebo animals died, FIG. 3B", "value": "all animals administered with TDCA have survived until 48 hours"}, {"measurement": "blood pressure (hypotensive shock)", "setting": "[6]; TDCA i.v. 2, 1, 1 mg/kg, FIG. 3C", "value": "hypotensive shock tends to be inhibited"}, {"measurement": "increase in level of BUN in the blood", "setting": "[6]; TDCA i.v. 2, 1, 1 mg/kg, FIG. 3D", "value": "suppressed"}, {"measurement": "increase in level of creatinine in the blood", "setting": "[6]; TDCA i.v. 2, 1, 1 mg/kg, FIG. 3E", "value": "suppressed"}, {"measurement": "IL-1β in serum", "setting": "[6]; TDCA i.v. 2, 1, 1 mg/kg, FIG. 3F", "value": "further inhibited than those in the placebo group"}, {"measurement": "IL-8 in serum", "setting": "[6]; TDCA i.v. 2, 1, 1 mg/kg, FIG. 3G", "value": "further inhibited than those in the placebo group"}]}
